This is an account of results in patent publication US20120128807A1, “COMPOSITION FOR PREVENTING OR TREATING IRRITABLE BOWEL SYNDROME” (SK CHEMICALS CO., LTD., priority 2009, published 2012).

For experiment [1], the target named is T1, neurokinin receptor (U-373MG glioma cell line) (Homo sapiens, UniProt P25103).
T1 construct: Cell line (U-373MG glioma cell line) over-expressing neurokinin receptor; host or cells: U-373MG glioma cell line
In words: Neurokinin receptor inhibition: binding of fluorescent substance P to U-373MG cells. To be noted: 50 nM sample, 50nM SP. How it is done: Cell line (U-373MG glioma cell line) over-expressing neurokinin receptor was purchased from Korean Cell Line Bank. The cell line was incubated with 5% CO2 in a medium (90% of RPMI 1640, 10% of fetal bovine serum, 100 IU/ml of penicillin, 100 μg/ml of streptomycin, 2 mM of L-glutamine, and 1.0 mM of sodium pyruvate), and was sub-cultured every 6-8 days with 0.25% trypsin solution.
Cells were diluted to have various cell numbers, and were seeded onto a 24-well plate. After 48 hours, substance P (SP) connected with a probe was added in various concentrations. After some time for reaction, the concentration of fluorescence probe-containing SP (Oregon Green488 conjugate, Molecular Probes, Eugene, Oreg.) bound to the receptor was measured with a fluorophotometer according to the number of cells and the concentrations, through which the ideal condition was established [V J. Bennett et al., BMC Chem. Biol., 1:1, 2001]. Non-peptide antagonist, L-733060 (estimated affinity=0.8nM), which selectively binds to the receptor was used as a control [R. Bang et al., J. Pharmacol. Exp. Ther., 305, p 31-39, 2003].
50% Ethanol aqueous solution extract of Atractylodes japonica was solved in DMSO (the final concentration is within 0.1%) and diluted with distilled water. […] Then, cells were dissolved in 5% Triton X-100, and their fluorescence (Ex 485/Em 528) was measured with black, opaque 96-well plate. […]

The target in experiment [2] is neurokinin receptor (Homo sapiens, UniProt P25103). To be noted: non-peptide antagonist which selectively binds to the receptor; cited from earlier work.
Chain of neurokinin receptor (P25103 whole entry): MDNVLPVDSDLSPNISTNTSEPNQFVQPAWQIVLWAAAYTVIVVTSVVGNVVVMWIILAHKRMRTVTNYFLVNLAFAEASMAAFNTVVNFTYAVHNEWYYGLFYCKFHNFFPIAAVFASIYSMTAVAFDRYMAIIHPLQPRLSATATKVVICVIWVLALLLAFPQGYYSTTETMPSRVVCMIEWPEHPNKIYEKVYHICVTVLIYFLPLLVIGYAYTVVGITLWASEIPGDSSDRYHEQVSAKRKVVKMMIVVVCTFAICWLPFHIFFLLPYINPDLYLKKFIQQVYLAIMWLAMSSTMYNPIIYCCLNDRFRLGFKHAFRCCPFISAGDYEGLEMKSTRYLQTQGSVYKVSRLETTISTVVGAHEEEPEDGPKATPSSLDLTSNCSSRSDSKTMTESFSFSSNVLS

T1 sequence (P25103 whole entry): as above

As for `FC(F)(F)c1cc(CO[C@H]2CCCN[C@H]2c2ccccc2)cc(C(F)(F)F)c1` [Extract L-733060, L-733060], the “Relative Inhibitory Activity (%)” value in experiment [1] is 72 ± 8 %. In addition, the estimated affinity in experiment [2] was 0.8 nM.
